In ChEMBL document CHEMBL3769336, “Discovery of a Chemical Tool Inhibitor Targeting the Bromodomains of TRIM24 and BRPF” (J Med Chem, 2016):
pIC50: −log10 of the molar value.

Molecular target: T1, Peregrin (Homo sapiens, UniProt P55201)
T1 sequence (P55201 whole entry): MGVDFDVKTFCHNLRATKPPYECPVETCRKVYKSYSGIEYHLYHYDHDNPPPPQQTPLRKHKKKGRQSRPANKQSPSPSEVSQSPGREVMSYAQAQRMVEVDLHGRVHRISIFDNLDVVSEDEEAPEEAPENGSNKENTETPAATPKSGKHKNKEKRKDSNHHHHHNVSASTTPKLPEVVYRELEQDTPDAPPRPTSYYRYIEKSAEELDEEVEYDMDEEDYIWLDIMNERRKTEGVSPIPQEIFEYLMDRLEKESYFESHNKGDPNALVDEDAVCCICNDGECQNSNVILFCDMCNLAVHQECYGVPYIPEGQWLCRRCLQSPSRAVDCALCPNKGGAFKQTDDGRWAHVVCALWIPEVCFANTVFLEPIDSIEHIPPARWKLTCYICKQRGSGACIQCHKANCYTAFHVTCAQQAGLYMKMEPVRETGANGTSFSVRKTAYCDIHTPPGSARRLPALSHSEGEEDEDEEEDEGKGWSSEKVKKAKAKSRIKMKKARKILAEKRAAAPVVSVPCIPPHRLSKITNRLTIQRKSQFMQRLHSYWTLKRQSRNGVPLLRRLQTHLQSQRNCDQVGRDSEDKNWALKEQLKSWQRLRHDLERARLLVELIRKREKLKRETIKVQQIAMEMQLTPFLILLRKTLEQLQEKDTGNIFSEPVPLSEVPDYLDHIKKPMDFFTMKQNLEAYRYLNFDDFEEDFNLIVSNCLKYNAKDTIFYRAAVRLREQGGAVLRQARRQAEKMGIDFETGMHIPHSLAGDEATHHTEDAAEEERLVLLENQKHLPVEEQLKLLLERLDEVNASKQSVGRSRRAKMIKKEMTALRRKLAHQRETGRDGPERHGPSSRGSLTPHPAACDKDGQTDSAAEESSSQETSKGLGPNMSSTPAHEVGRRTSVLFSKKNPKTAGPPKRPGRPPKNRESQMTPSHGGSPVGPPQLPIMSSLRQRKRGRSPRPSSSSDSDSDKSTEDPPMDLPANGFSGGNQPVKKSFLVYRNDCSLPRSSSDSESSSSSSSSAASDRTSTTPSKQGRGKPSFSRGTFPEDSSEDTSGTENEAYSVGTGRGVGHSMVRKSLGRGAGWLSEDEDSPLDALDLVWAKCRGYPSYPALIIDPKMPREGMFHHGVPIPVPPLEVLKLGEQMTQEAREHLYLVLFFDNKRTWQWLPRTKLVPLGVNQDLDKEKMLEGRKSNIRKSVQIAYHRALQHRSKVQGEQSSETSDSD
Experiment: Inhibition of BRPF1B (unknown origin) by Alpha Screen assay

- pIC50: 6.47
Compound: COc1ccc(Oc2cc3c(cc2NS(=O)(=O)c2ccc(OC)c(OC)c2)n(C)c(=O)n3C)cc1
